Patent US20250320496A1, “MODULATION OF ABCB11 GENE TRANSCRIPTION USING ANTISENSE OLIGONUCLEOTIDES TARGETING REGULATORY RNAS” (CAMP4 Therapeutics Corporation, priority 2022, published 2025)
Strand notation (5' to 3'): a small letter for the sugar, then the base; units joined by * are phosphorothioate-linked, units joined directly phosphodiester-linked; [ ] holds rarer units or linkages, { } end groups; capitals alone tell only the bases. e = 2'-O-(2-methoxyethyl) (MOE); l = locked nucleic acid (LNA); [5mC] = 5-methylcytosine; d = 2'-deoxy (DNA)

Test system: human ABCB11 mRNA
Experiment: ASO treatment of primary human hepatocytes (PHH), ABCB11 mRNA by RT-qPCR normalized to B2M
Assay type: cell-based
Settings: primary human hepatocytes; for ABCB11 mRNA FC (5 μM ASO vs. UNT): normalized to untreated PHHs (UNT); for ABCB11 FC mRNA (5 μM ASO vs. untreated): 5 μM ASO with PO-modifications, normalized to untreated hepatocytes
Outline: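 ABCB11 mRNA was quantified by Taqman RT-qPCR relative to B2M and expressed as fold over untreated cells. Cells were cryopreserved primary human hepatocytes given ASO in Matrigel-supplemented medium 4 h after plating, at 1.25, 2.5, 5 or 10 μM (5 μM for screening), and harvested after 72 hrs.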

Row | Substance | ABCB11 mRNA FC (5 μM ASO vs. UNT) [fold change] | ABCB11 FC mRNA (5 μM ASO vs. untreated) [fold change]
1 | CO-7147 (antisense e[5mC]*eT*eT*eA*lG*eG*eA*eG*eG*lA*eT*eT*eA*eT*lT*eT*eA*eA*e[5mC]*e[5mC]) | 1.272 | 
2 | CO-7197 (eG*eG*eT*eG*eG*dA*dG*d[5mC]*eA*dA*dA*d[5mC]*dT*eA*dG*dG*d[5mC]*eA*e[5mC]*eT*eG*eA; antisense) | 1.364 | 
3 | CO-7190: derivative ASO with additional chemical modifications based on parent ASO CO-4535 (antisense eT*eG*lG*e[5mC]*eG*lT*eT*eA*lT*eT*eA*lA*eT*eT*l[5mC]*eT*eA*l[5mC]*eA*eG) | 1.641 | 
4 | CO-7019 (antisense eA*eA*eG*eT*eG*dA*dG*eG*d[5mC]*dA*eT*d[5mC]*dA*eG*dG*dT*eA*dA*dG*eT*eT*e[5mC]*e[5mC]*eT) | 1.284 | 
5 | CO-7149: derivative ASO with additional chemical modifications based on parent ASO CO-4517 (antisense e[5mC]*e[5mC]*eT*eT*eA*eG*eG*eA*eG*eG*eA*eT*eT*eA*eT*eT*eT*eA*eA*e[5mC]*e[5mC]*eT) | 1.719 | 
6 | CO-7005 (antisense eG*eT*eG*eG*eA*eT*dG*dT*dA*dG*dA*dT*dG*dA*dA*dT*eG*eG*e[5mC]*eA*eA*eG) | 1.257 | 
7 | CO-4048 (antisense eA*eG*e[5mC]*eA*eT*e[5mC]*eT*eG*eG*eA*eT*e[5mC]*e[5mC]*eT*eG*e[5mC]*eA*eA*e[5mC]*e[5mC]) | 1.448 | 
8 | CO-11205 (antisense eT*eGeT*eT*eT*eTeG*e[5mC]*eT*eTeG*eG*eT*e[5mC]eA*eA*eG*eAeG*eG) |  | 1.11
9 | CO-7006 (antisense eG*eT*eG*eG*eA*eT*eG*eT*eA*eG*eA*eT*eG*eA*eA*eT*eG*eG*e[5mC]*eA*eA*eG) | 1.279 | 
10 | CO-4492 (antisense eG*eA*eT*eT*eT*eA*eA*eA*eG*eG*eA*e[5mC]*eT*eG*e[5mC]*eA*eT*eG*eG*e[5mC]) | 1.192 | 
11 | CO-4040 (antisense eG*eT*eT*eT*e[5mC]*e[5mC]*e[5mC]*eA*eA*eG*e[5mC]*eA*e[5mC]*eA*e[5mC]*eT*e[5mC]*eT*eG*eT) | 0.921 | 
12 | CO-12745 (antisense eG*eT*eG*eA*eGeGe[5mC]*eA*eT*e[5mC]*eA*eG*eG*eTeAeA*eG*eT*eT*e[5mC]) |  | 0.92
13 | CO-11225 (antisense eG*eTlGeGeAlGe[5mC]*eA*lA*eA*e[5mC]*lT*eA*eGlGe[5mC]eAl[5mC]eT*eG) |  | 1.66
14 | CO-4061 (antisense eA*eT*eT*e[5mC]*eA*eT*eT*eG*e[5mC]*eT*eG*eA*eA*eG*eG*e[5mC]*eT*eG*eG*eA) | 1.233 | 
15 | CO-4042 (antisense e[5mC]*eT*e[5mC]*eT*e[5mC]*eG*eT*eT*e[5mC]*e[5mC]*eA*eA*eG*eG*eT*eG*eA*eA*eT*e[5mC]) | 0.605 | 
16 | CO-7191: derivative ASO with additional chemical modifications based on parent ASO CO-4535 (eT*eG*eG*e[5mC]*lG*eT*eT*eA*lT*eT*eA*eA*lT*eT*e[5mC]*eT*lA*e[5mC]*eA*eG) | 1.676 | 
17 | CO-4522 (antisense e[5mC]*eA*e[5mC]*eT*eG*eG*e[5mC]*e[5mC]*e[5mC]*eA*eT*e[5mC]*eA*eA*eT*eT*eG*e[5mC]*eA*eT) | 1.027 | 
18 | CO-7196 (eG*eG*eT*eG*eG*eA*eG*e[5mC]*eA*eA*eA*e[5mC]*eT*eA*eG*eG*e[5mC]*eA*e[5mC]*eT*eG*eA; antisense) | 1.33 | 
19 | CO-7043 (antisense eT*eT*eG*e[5mC]*eT*eT*eG*eG*eT*e[5mC]*eA*eA*eG*eA*eG*eG*eA*eA*eA*eG) | 1.1 | 
20 | CO-4027 (antisense eG*eT*eG*eG*eA*eG*eT*eGeT*eT*eT*e[5mC]*eT*eG*eG*eT*eT*eT*eA*eT) | 1.095 | 
21 | CO-7064 (eT*e[5mC]*eT*eG*lG*eA*eA*eA*lA*eT*eA*eA*lT*eG*e[5mC]*e[5mC]*lT*eT*eT*e[5mC]; antisense) | 1.017 | 
22 | CO-4053 (antisense eG*eA*eG*e[5mC]*eT*eT*e[5mC]*eA*eT*e[5mC]*eT*eG*eG*eT*eG*eT*eG*eT*e[5mC]*e[5mC]) | 1.218 | 
23 | CO-11232 (antisense eG*eT*lGeG*eAlG*e[5mC]eA*lAeA*e[5mC]lT*eAeG*lGe[5mC]*eAl[5mC]*eT*eG) |  | 1.72
24 | CO-6993 (antisense eT*eG*eG*eA*eT*lG*eT*eA*eG*eA*lT*eG*eA*eA*eT*lG*eG*e[5mC]*eA*eA) | 1.209 | 
25 | CO-11210 (antisense eG*eT*lG*eG*lAeGl[5mC]*eA*lA*eA*l[5mC]*eT*lA*eGlGe[5mC]*lA*e[5mC]*eT*eG) |  | 2.79

Row | Substance | ABCB11 mRNA FC (5 μM ASO vs. UNT) [fold change] | ABCB11 FC mRNA (5 μM ASO vs. untreated) [fold change]
26 | CO-6672 (antisense eA*eG*eG*eA*e[5mC]*eA*e[5mC]*eA*eA*eT*eT*eT*e[5mC]*eT*eG*eT*eA*eG*eT*eT) | 1.391 | 
27 | CO-7181: derivative ASO with additional chemical modifications based on parent ASO CO-4529 (antisense eG*eT*eG*eG*lA*eG*e[5mC]*eA*lA*eA*e[5mC]*eT*lA*eG*eG*e[5mC]*lA*e[5mC]*eT*eG) | 1.603 | 
28 | CO-7048 (antisense eT*eG*eG*eA*eG*eT*eT*eG*eT*eG*eT*eT*eT*eT*eG*e[5mC]*eT*eT*eG*eG) | 1.175 | 
29 | CO-7051 (antisense eA*e[5mC]*e[5mC]*eT*eT*eG*eG*eT*eT*e[5mC]*e[5mC]*e[5mC]*e[5mC]*e[5mC]*eT*eG*e[5mC]*eT*eG*eT) | 1.201 | 
30 | CO-4526 (antisense eG*e[5mC]*eT*eT*eG*eT*eG*eA*eT*eG*eT*e[5mC]*e[5mC]*eA*eG*eA*eT*eG*eA*e[5mC]) | 1.048 | 
31 | CO-11208 (antisense eT*eG*eTeT*eTeT*eGe[5mC]*eTeT*eGeG*eTe[5mC]*eAeA*eGeA*eG*eG) |  | 1.04
32 | CO-7008 (antisense eG*eT*eG*eG*eA*lT*dG*dT*lA*dG*dA*dT*dG*lA*dA*dT*lG*eG*e[5mC]*eA*eA*eG) | 1.175 | 
33 | CO-7057 (antisense eA*e[5mC]*eT*eG*e[5mC]*eT*e[5mC]*eA*e[5mC]*e[5mC]*e[5mC]*e[5mC]*e[5mC]*e[5mC]*eT*e[5mC]*eA*e[5mC]*e[5mC]*eT) | 1.145 | 
34 | CO-11237 (antisense eG*eTeGeGlAeGe[5mC]*eA*eA*lA*e[5mC]*eT*eA*eGlGe[5mC]eAe[5mC]eT*eG) |  | 1.56
35 | CO-4046 (antisense eG*eG*eG*eAeA*eA*eG*eT*eT*eT*eA*eA*eA*eGeGeT*eA*eT*eT*eT) | 1.035 | 
36 | CO-7090 (eA*e[5mC]*e[5mC]*e[5mC]*l[5mC]*d[5mC]*d[5mC]*dT*l[5mC]*dA*d[5mC]*d[5mC]*lT*dT*dG*eG*lT*eT*e[5mC]*e[5mC]; antisense) | 1.203 | 
37 | CO-11209 (antisense eT*eGeT*eTeT*eTeG*e[5mC]eT*eTeG*eGeT*e[5mC]eA*eAeG*eAeG*eG) |  | 1.11
38 | CO-4510 (antisense eG*e[5mC]*e[5mC]*eA*e[5mC]*eA*e[5mC]*eG*eT*eT*eT*e[5mC]*eT*eT*eA*eT*eT*eG*e[5mC]*eG) | 1.084 | 
39 | CO-4034 (antisense e[5mC]*eG*eA*eG*eG*eT*eT*eG*eG*eA*eA*eA*eA*eG*eG*eT*eT*eG*eT*eG) | 0.792 | 
40 | CO-7168 (antisense eT*eG*eG*e[5mC]*eG*dT*dT*dA*dT*dT*dA*dA*dT*dT*d[5mC]*eT*eA*e[5mC]*eA*eG) | 1.301 | 
41 | CO-7058 (antisense eT*e[5mC]*eT*eG*eG*lA*dA*dA*lA*dT*dA*lA*dT*dG*l[5mC]*e[5mC]*eT*eT*eT*e[5mC]) | 1.052 | 
42 | CO-4045 (antisense eA*e[5mC]*eT*eT*eT*eT*e[5mC]*eA*e[5mC]*eA*eA*e[5mC]*eT*eA*e[5mC]*eA*eG*eG*e[5mC]*e[5mC]) | 0.815 | 
43 | CO-7108 (eA*e[5mC]*eA*eT*eT*dT*dA*dG*eA*dG*dA*d[5mC]*dA*eA*dA*dG*dA*eA*eT*e[5mC]*eG*e[5mC]; antisense) | 1.101 | 
44 | CO-4059 (antisense eG*eT*eA*eA*eG*e[5mC]*eT*e[5mC]*eA*eG*eG*e[5mC]*eAeA*eA*eG*eG*eA*eG*eA) | 1.186 | 
45 | CO-4050 (antisense e[5mC]*eA*eA*eA*eT*eG*eT*eT*e[5mC]*eT*eT*eT*eT*eA*eG*eG*eG*eT*eA*eT) | 0.968 | 
46 | CO-11226 (antisense eG*eT*lGeG*eA*lG*e[5mC]*eAlA*eA*e[5mC]*lT*eAeG*lG*e[5mC]*eA*l[5mC]eT*eG) |  | 2.31
47 | CO-6985 (antisense eT*eG*eG*eA*eT*lG*dT*dA*lG*dA*dT*lG*dA*dA*lT*eG*eG*e[5mC]*eA*eA) | 1.414 | 
48 | CO-3996 (antisense eT*eT*eG*eT*e[5mC]*eT*e[5mC]*eT*eG*eG*eT*eT*eG*eAeA*eG*e[5mC]*e[5mC]*eT*e[5mC]) | 2.097 | 
49 | CO-11242 (antisense eG*eTeG*eG*lAeG*e[5mC]*eAeA*lA*e[5mC]eT*eA*eGlG*e[5mC]*eAe[5mC]*eT*eG) |  | 1.49
